Data taken from patent publication US8378070B2, “Peptides for the regulation of neurotransmitter sequestration and release” (Ramot at Tel-Aviv University Ltd., priority 2007, dated 2013).

Legend:
[1] = tested on: striatum; test: In vivo 6-hydroxydopamine hemiparkinsonian mouse model, striatal Western blotting; conditions: mice
Protocol: In vivo 6-hydroxydopamine hemiparkinsonian mouse model: Eight-week-old male C57BL/6 mice (Harlan, Israel; 22-28 g) were used for 6-hydroxydopamine hemiparkinsonian mouse model experiments. All animals were housed in standard conditions, in a constant temperature (22±1° C.), relative humidity (30%), 12-h light: 12-h dark cycle, with free access to food and water. Surgical procedures were performed under the supervision of the Animal Care Committee at the Rabin Medical Center and at Tel Aviv University, Tel Aviv, Israel. Mice received a unilateral, right intrastriatal injection of […] 6-hydroxydopamine hydrobromide (Sigma, Israel) using a stereotaxic surgical procedure. Injections were targeted to the central striatum using the following coordinates: 0.5 mm anterior to bregma, 2.0 mm lateral to bregma, and 2.5 mm deep to the skull surface. Treatments were administered in a volume of 2.0 μL at a rate of 0.5 μL/min. 24 hours after 6-hydroxydopamine lesioning, striatal tissue was collected from both the injected and intact sides for DJ-1, VMAT2 and TH analysis. For analysis of acute 6-hydroxydopamine effects on phosphokinases striatal tissue was excised after 30 and 45 minutes of 6-hydroxydopamine injection.

[2] = tested on: DJ-1 mRNA; test: Real time quantitative PCR of DJ-1 mRNA; format: cell-based, human
Protocol: Cellular transfection and treatment: SH-SY5Y human neuroblastoma cells, obtained from the ATCC (Rockville, USA), were stably transfected with pIRES2-acGFP1 plasmid (BD biosciences, Clontech) containing wild type DJ-1. […] As controls, naïve neuroblastoma cells were used as well as cells stably transfected with the same vectors. Transfections were performed using the lipofectamine 2000 reagent (Invitrogen). Stable transfections were achieved by geneticin treatment and were verified by measuring DJ-1 mRNA and protein levels using real-time PCR and Western blotting. […] RNA isolation and Real time quantitative PCR: Total RNA was isolated from cultured neuroblastoma cells using a commercial reagent TriReagentTM (Sigma). The amount and quality of RNA was determined spectrophotometrically using the ND-1000 spectrophotometer (NanoDrop). First-strand cDNA synthesis was carried out from […] of the total RNA using random primer (Invitrogen) and RT-superscript II (Invitrogen) reverse transcriptase. Real-time quantitative reverse transcription polymerase chain reaction (PCR) of the desired genes was performed in an ABI Prism 7700 sequence detection system (Applied biosystems) using Sybr green PCR master mix (Applied biosystems) and the following primers: GAPDH (used as 'housekeeping' gene) sense: […] NO: 7), GAPDH antisense: […] NO: 8); DJ-1 sense: […] ID NO: 9) DJ-1 antisense: […] ID NO:10) VMAT2 sense: […] ID NO: 11) VMAT2 antisense: […] NO: 12). Real time quantitative PCR (qPCR) was performed using AbsoluteTM QPCR SYBR® Green ROX Mix, in triplicates. Quantitative calculations of the gene of interest versus GAPDH were done using the ddCT method.

[3] = target: T1, VMAT2 (Homo sapiens, UniProt Q05940); test: KCl-induced [3H]dopamine release; format: cell-based
T1 construct: endogenous in cells; host or cells: SH-SY5Y human neuroblastoma cells (naive, stably transfected with wild type DJ-1, or with siRNA for DJ-1)
T1 sequence (Q05940 whole entry): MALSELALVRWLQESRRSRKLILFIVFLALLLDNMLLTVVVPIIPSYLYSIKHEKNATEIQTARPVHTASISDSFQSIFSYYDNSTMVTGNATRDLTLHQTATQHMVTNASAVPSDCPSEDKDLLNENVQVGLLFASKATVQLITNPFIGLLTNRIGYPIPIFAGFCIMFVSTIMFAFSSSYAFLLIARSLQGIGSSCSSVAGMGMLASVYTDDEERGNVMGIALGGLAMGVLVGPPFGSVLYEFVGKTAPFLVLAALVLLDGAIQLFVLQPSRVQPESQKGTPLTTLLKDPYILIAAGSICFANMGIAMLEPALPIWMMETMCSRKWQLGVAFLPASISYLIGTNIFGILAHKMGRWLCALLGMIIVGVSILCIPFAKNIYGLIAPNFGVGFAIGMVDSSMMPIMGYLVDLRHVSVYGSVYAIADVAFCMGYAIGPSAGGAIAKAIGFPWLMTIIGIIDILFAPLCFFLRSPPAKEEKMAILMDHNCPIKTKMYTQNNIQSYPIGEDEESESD
Protocol: KCl-induced dopamine release: Cells were plated on poly-D-lysin-coated 24-well plates. Cells were rinsed with assay buffer (containing Tris 4 mM, HEPES 6.25 mM, NaCl 120 mM, KCl 5 mM, CaCl2 1.2 mM, MgSO4 1.2 mM, D-glucose 5.6 mM and ascorbic acid 0.5 mM) and were then incubated with 0.5 uCi/ml [3H]Dopamine (Amersham Biosciences) for 20 minutes at 37° C. To measure stimulation-induced [3H]Dopamine release, [3H]Dopamine-loaded cells were rinsed extensively with ice cold buffer, and were treated with 60 mM KCl for 20 minutes at 37° C. and extracellular [3H]Dopamine was measured. Inhibition of VMAT2 was done using dihydrotetrabenazine (0-1 mM). All samples were analyzed with Packard liquid scintillation counter. Experiments were conducted in triplicates and repeated three times.

[4] = tested on: ERK 1,2
Protocol: Cells were treated with dopamine (0-500 uM; Sigma. Israel), N-acetylcysteine (NAC 5 mM; Sigma), and PD-98059 (30 uM; Calbiochem, Rosh Haayin, Israel).
Protein extraction and Western blotting: Protein extraction and Western blotting were done as previously described [Lev, N., et al Antioxid. redox signal. 8, 1987-1995 (2006)]. The membranes were probed with rabbit anti-DJ 1 antibody (1:1000; Chemicon Laboratories), mouse anti-VMAT2 (1:100; Chemicon Laboratories), and rabbit anti emerin (1:5000; Santa Cruz), followed by horseradish peroxidase conjugated secondary antibody (1:10000; Sigma) and developed with the Super Signal West Pico Chemiluminescent substrate (Pierce Biotechnology). Densitometry of the specific protein bands was preformed by VersaDoc® imaging system and Quantity One® software (BioRad).
Immunocytochemistry: Cells were fixed with 4% paraformaldehyde and permeabilized with 0.5% Triton X-100 and were then incubated in a blocking solution followed by overnight incubation with rabbit anti-VMAT2 (1:100; Chemicon Laboratories), at 4° C. followed by incubation with alexa-568 conjugated goat anti rabbit antibodies (1:1000; Molecular probes). Nuclei were counterstained by 4′,6-Diamidino-2-phenylindole dihydrochloride (DAPI, Sigma).

[5] = tested on: SH-SY5Y human neuroblastoma cells; test: MTT cell viability assay; format: cell-based
Protocol: (§1) Cellular transfection and treatment: SH-SY5Y human neuroblastoma cells, obtained from the ATCC (Rockville, USA), were stably transfected with pIRES2-acGFP1 plasmid (BD biosciences, Clontech) containing wild type DJ-1. Decreased expression of DJ-1 was achieved by stable transfection with pSilencer2.1-U6 plasmid (Ambion) containing siRNA for DJ-1. As controls, naïve neuroblastoma cells were used as well as cells stably transfected with the same vectors. Transfections were performed using the lipofectamine 2000 reagent (Invitrogen). Stable transfections were achieved by geneticin treatment and were verified by measuring DJ-1 mRNA and protein levels using real-time PCR and Western blotting.
Cell viability: Cell viability was determined by the MTT (3-(4,5-dimethylthiazole-2-yl)-2,5-diphenyltetrazolium bromide, Sigma) reduction assay. Viability after exposure to increasing dopamine levels was analyzed by adding MIT solution to each well followed by incubation at 37° C. for 3 hours. Absorbance was determined at 564 nm in a microplate reader. Cell viability was evaluated in triplicate for each treatment. All experiments were repeated at least 3 times.

[6] = tested on: DJ-1 protein; test: Western blotting of DJ-1 protein in neuroblastoma cells; format: cell-based, human
Protocol: as §1, with “Decreased expression of DJ-1 was achieved by stable transfection with pSilencer2.1-U6 plasmid (Ambion) containing siRNA for DJ-1.” left out, “blotting. […] 8, 1987-1995 (2006)].” for “blotting.”

[7] = tested on: VMAT2 promotor; conditions: after exposure to 50 μM dopamine
Protocol: Chromatin immunoprecipitation: ChIP assays using cultured neuroblastoma cells were performed following Upstate instructions. After protein-DNA cross-linking by paraformaldehyde, cells were harvested and the pellets were resuspended in lysis-buffer and sonicated on ice (5 sets of 15-s pulse at 40% maximal power). After pre-clearing with Protein G/A-agarose, aliquots were incubated with DJ-1 antibodies or non-specific antibodies (as control) overnight at 4° C. with rotation. Immunopercipitated DNA was used as templates for the following primers, designed for the human VMAT promotor: sense: [sequence]

[8] = tested on: SH-SY5Y human neuroblastoma cells; test: Intracellular reactive oxygen species (DCF assay); format: cell-based
Protocol: as §1
Measurement of intracellular reactive oxygen species (ROS): The generation of ROS, after exposure to increasing dopamine concentrations, was measured using H2DCFDA (Sigma), which is incorporated into the cells and cleaved into fluorescent DCF in the presence of ROS. 10 μM H2DCFDA was added to the cell suspension, and the cells were incubated in the dark at 37° C. for 10 minutes. DCF fluorescence was measured by FLUOstar spectrofluorometer microplate reader at 520 nm. The generation of ROS was quantitatively assayed by the increase in DCF fluorescence and expressed as percentage of control. Each experiment was repeated at least 3 times in triplicates.

[9] = tested on: VMAT2 mRNA; test: Real time quantitative PCR of VMAT2 mRNA; format: cell-based, human
Protocol: Cellular transfection and treatment: SH-SY5Y human neuroblastoma cells, obtained from the ATCC (Rockville, USA), were stably transfected with pIRES2-acGFP1 plasmid (BD biosciences, Clontech) containing wild type DJ-1. […] As controls, naïve neuroblastoma cells were used as well as cells stably transfected with the same vectors. Transfections were performed using the lipofectamine 2000 reagent (Invitrogen). Stable transfections were achieved by geneticin treatment and were verified by measuring DJ-1 mRNA and protein levels using real-time PCR and Western blotting. […] RNA isolation and Real time quantitative PCR: Total RNA was isolated from cultured neuroblastoma cells using a commercial reagent TriReagentTM (Sigma). The amount and quality of RNA was determined spectrophotometrically using the ND-1000 spectrophotometer (NanoDrop). […] Real-time quantitative reverse transcription polymerase chain reaction (PCR) of the desired genes was performed in an ABI Prism 7700 sequence detection system (Applied biosystems) using Sybr green PCR master mix (Applied biosystems) and the following primers: GAPDH (used as 'housekeeping' gene) sense: […] […] Real time quantitative PCR (qPCR) was performed using AbsoluteTM QPCR SYBR® Green ROX Mix, in triplicates. Quantitative calculations of the gene of interest versus GAPDH were done using the ddCT method.

[10] = tested on: tyrosine hydroxylase (TH); test: Tyrosine hydroxylase mRNA (real time PCR) and ChIP of TH promotor; format: cell-based, human; conditions: DJ-1 overexpressing cells, GAPDH reference
Protocol: RNA isolation and Real time quantitative PCR: Total RNA was isolated from cultured neuroblastoma cells using a commercial reagent TriReagent™ (Sigma). The amount and quality of RNA was determined spectrophotometrically using the ND-1000 spectrophotometer (NanoDrop). First-strand cDNA synthesis was carried out from […] of the total RNA using random primer (Invitrogen) and RT-superscript II (Invitrogen) reverse transcriptase. Real-time quantitative reverse transcription polymerase chain reaction (PCR) of the desired genes was performed in an ABI Prism 7700 sequence detection system (Applied biosystems) using Sybr green PCR master mix (Applied biosystems) and the following primers: GAPDH (used as ‘housekeeping’ gene) sense: CGACAGTCAGCCGCATCTT (SEQ ID NO: 7), GAPDH antisense: […] (SEQ ID NO: 8); DJ-1 sense: […], (SEQ ID NO: 9) DJ-1 antisense: […], (SEQ ID NO:10) VMAT2 sense: […], (SEQ ID NO: 11) VMAT2 antisense: […] (SEQ ID NO: 12). Real time quantitative PCR (qPCR) was performed using Absolute™ QPCR SYBR® Green ROX Mix, in triplicates. Quantitative calculations of the gene of interest versus GAPDH were done using the ddCT method.

[11] = PD98059 30 uM, inhibition of ERK1,2 phosphorylation

Br.NCCc1cc(O)c(O)cc1O [6-hydroxydopamine, 6-hydroxydopamine hydrobromide]
ERK1,2 phosphorylation in striatum ([1]; acute exposure, intrastriatal injection, 30 and 45 minutes): increased phosphorylation of ERK1, 2
DJ-1 and VMAT-2 protein expression in lesioned vs unlesioned striatum ([1]; unilateral intrastriatal injection, 24 hours): increased expression of DJ-1 and of VMAT-2 proteins

CC(=O)N[C@@H](CS)C(=O)O [NAC, N-acetylcysteine]
Effect on dopamine-induced DJ-1 mRNA upregulation ([2]; pre-treatment with NAC 5 mM, naïve neuroblastoma): abolished DJ-1 mRNA upregulation

COc1cc2c(cc1OC)[C@H]1C[C@@H](O)[C@H](CC(C)C)CN1CC2 [dihydrotetrabenazine]
KCl induced dopamine release ([3]; dihydrotetrabenazine 0-1 mM, 60 mM KCl 20 minutes): abolished

NCCc1ccc(O)c(O)c1 [dopamine]
Time to phosphorylation of ERK 1,2 after dopamine exposure ([4]; naive neuroblastoma, Western blotting and immunocytochemistry): 20 to 60 min
Phosphorylation of ERK 1 and 2 after dopamine exposure ([4]; naïve neuroblastoma cells): rapid phosphorylation
Cell viability (MTT) after dopamine exposure ([5]; dopamine 0-500 uM, 24 hours, neuroblastoma cells): dose dependent cell death
DJ-1 protein after dopamine exposure (Western blot) ([6]; naïve neuroblastoma cells): Increased DJ-1 protein
VMAT2 promotor precipitated by anti-DJ-1 antibodies (ChIP) [7]: higher amounts of VMAT2 promotor were precipitated
Intracellular ROS (DCF assay) after dopamine exposure ([8]; increasing dopamine concentrations, neuroblastoma cells): increased intracellular ROS
VMAT2 mRNA elevation of basal level ([9]; 50 μM dopamine, after 7 hours, naïve neuroblastoma cells): 60 fold
Increase in DJ-1 mRNA ([2]; 50 μM dopamine, within 1 hour, naïve neuroblastoma cells): 2.5 fold

COc1cccc(-c2cc(=O)c3ccccc3o2)c1N [PD98059]
Effect on dopamine-induced DJ-1 protein upregulation (Western blot) [6, 11]: abolished DJ-1 protein upregulation
Effect on dopamine-induced DJ-1 mRNA upregulation [2, 11]: inhibited DJ-1 mRNA upregulation

B1: DJ-1: wild type DJ-1 overexpressed by stable transfection with pIRES2-acGFP1 plasmid; GenBank AB073864 (protein, listed as Homo sapiens)
chain: MASKRALVILAKGAEEMETVIPVDVMRRAGIKVTVAGLAGKDPVQCSRDVVICPDASLEDAKKEGPYDVVVLPGGNLGAQNLSESAAVKEILKEQENRKGLIAAICAGPTALLAHEIGCGSKVTTHPLAKDKMMNGGHYTYSENRVEKDGLILTSRGPGTSFEFALAIVEALNGKEVAAQVKAPLVLKD
KCl-induced dopamine release from synaptic vesicles compared to naïve neuroblastoma cells ([3]; transfected SH-SY5Y cells): released more dopamine
Protection against rotenone and 6-hydroxydopamine ([5]; DJ-1 overexpressing neuroblastoma cells): protects against dopaminergic toxins
Vulnerability to dopamine toxicity (MTT viability) ([5]; dopamine 0-500 uM, 24 hours, transfected SH-SY5Y cells): conferred resistance to dopamine
Dopamine-induced intracellular ROS (DCF assay) ([8]; transfected SH-SY5Y cells vs naïve neuroblastoma): decreased intracellular ROS
VMAT2 expression level compared to control (mRNA) ([9]; stably transfected SH-SY5Y cells): over 500 fold
TH mRNA levels (real time PCR) [10]: upregulation of TH mRNA
DJ-1 mRNA and protein levels in overexpressing cells ([2]; stable transfection with wild type DJ-1): over 3 fold
